Test results taken from patent US12465652B2 (AMGEN INC., priority 2017, dated 2025).

Assays:
human GLP-IR [1] = target: T1, human GLP-IR (Homo sapiens, UniProt P43220); experiment: GLP1 activity | EC50 (pM)
From the text: Table printed on a drawing sheet, FIG. 1A
Head of the field: GLP1 activity | EC50 (pM)
The patent's description of the figure: FIG. 1A-1B: Synthetic Peptides (FIG. 1A discloses SEQ ID NOS 3948 and 3275-3298 and FIG. 1B discloses SEQ ID NOS 3948 and 3299-3302, all respectively, in order of appearance)
First copying reader's note: The first head row prints a reference sequence (residues at positions 7-35) above the position numbers; two fully empty rows separate groups of peptides.
Where the first naming reader finds the target: passage: CHOK1 cells stably expressing the human GLP-IR were used to measure peptide or recombinant fusion-induced cAMP production

human GLP-IR [2] = target: T1, human GLP-IR; experiment: GLP1 activity | EC50 (M)
From the text: Table printed on a drawing sheet, FIG. 1A Head of the field: GLP1 activity | EC50 (M) The patent's description of the figure: FIG. 1A-1B: Synthetic Peptides (FIG. 1A discloses SEQ ID NOS 3948 and 3275-3298 and FIG. 1B discloses SEQ ID NOS 3948 and 3299-3302, all respectively, in order of appearance) First copying reader's note: The first head row prints a reference sequence (residues at positions 7-35) above the position numbers; two fully empty rows separate groups of peptides. Where the first naming reader finds the target: passage: CHOK1 cells stably expressing the human GLP-IR were used to measure peptide or recombinant fusion-induced cAMP production

T1 sequence (P43220 24-463 limits assumed): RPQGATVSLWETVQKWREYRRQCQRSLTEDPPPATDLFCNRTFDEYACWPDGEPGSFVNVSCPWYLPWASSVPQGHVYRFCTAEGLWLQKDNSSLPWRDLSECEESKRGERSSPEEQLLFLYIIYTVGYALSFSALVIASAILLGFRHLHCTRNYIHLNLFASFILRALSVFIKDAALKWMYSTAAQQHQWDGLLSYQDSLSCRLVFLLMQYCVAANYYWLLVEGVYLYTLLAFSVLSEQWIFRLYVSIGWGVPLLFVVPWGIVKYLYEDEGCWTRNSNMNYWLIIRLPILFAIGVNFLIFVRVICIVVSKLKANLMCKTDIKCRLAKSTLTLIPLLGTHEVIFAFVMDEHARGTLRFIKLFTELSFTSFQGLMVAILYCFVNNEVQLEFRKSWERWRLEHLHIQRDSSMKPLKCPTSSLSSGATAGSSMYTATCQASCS

## CC[C@H](C)[C@H](NC(=O)[C@H](Cc1ccccc1)NC(=O)[C@H](CCC(=O)O)NC(=O)[C@H](CCCCN)NC(=O)[C@H](C)NC(=O)[C@H](C)NC(=O)[C@H](CCC(N)=O)NC(=O)CNC(=O)[C@H](CCC(=O)O)NC(=O)[C@H](CC(C)C)NC(=O)[C@H](Cc1ccc(O)cc1)NC(=O)[C@H](CO)NC(=O)[C@H](CO)NC(=O)[C@@H](NC(=O)[C@H](CC(=O)O)NC(=O)[C@H](CO)NC(=O)[C@@H](NC(=O)[C@H](Cc1ccccc1)NC(=O)[C@@H](NC(=O)CNC(=O)[C@H](CCC(=O)O)NC(=O)CNC(=O)[C@H](Cc1c[nH]cn1)NC(=O)CN)[C@@H](C)O)[C@@H](C)O)C(C)C)C(=O)N[C@@H](C)C(=O)N[C@@H](Cc1c[nH]c2ccccc12)C(=O)N[C@@H](CC(C)C)C(=O)N[C@H](C(=O)N[C@@H](CCCCN)C(=O)NCC(=O)O)C(C)C [3166961#1, GHGEGTFTSDVSSYLEGQAAKEFIAWLVKG]
Human GLP-IR [1]
  EC50: 0.205 nM

## CC[C@H](C)[C@H](NC(=O)[C@H](Cc1ccccc1)NC(=O)[C@H](CCC(=O)O)NC(=O)[C@H](CCCCN)NC(=O)[C@H](C)NC(=O)[C@H](C)NC(=O)[C@H](CCC(N)=O)NC(=O)CNC(=O)[C@H](CCC(=O)O)NC(=O)[C@H](CC(C)C)NC(=O)[C@H](Cc1ccc(O)cc1)NC(=O)[C@H](CO)NC(=O)[C@H](CO)NC(=O)[C@@H](NC(=O)[C@H](CC(=O)O)NC(=O)[C@H](CO)NC(=O)[C@@H](NC(=O)[C@H](Cc1ccccc1)NC(=O)[C@@H](NC(=O)CNC(=O)[C@H](CCC(=O)O)NC(=O)CNC(=O)[C@H](Cc1c[nH]cn1)NC(=O)[C@@H](N)Cc1c[nH]cn1)[C@@H](C)O)[C@@H](C)O)C(C)C)C(=O)N[C@@H](C)C(=O)N[C@@H](Cc1c[nH]c2ccccc12)C(=O)N[C@@H](CC(C)C)C(=O)N[C@H](C(=O)N[C@@H](CCCCN)C(=O)NCC(=O)O)C(C)C [3166962#1, HHGEGTFTSDVSSYLEGQAAKEFIAWLVKG]
Human GLP-IR [1]
  EC50: 0.363 nM

## CC[C@H](C)[C@H](NC(=O)[C@H](Cc1ccccc1)NC(=O)[C@H](CCC(=O)O)NC(=O)[C@H](CCCCN)NC(=O)[C@H](C)NC(=O)[C@H](C)NC(=O)[C@H](CCC(N)=O)NC(=O)CNC(=O)[C@H](CCC(=O)O)NC(=O)[C@H](CC(C)C)NC(=O)[C@H](Cc1ccc(O)cc1)NC(=O)[C@H](CO)NC(=O)[C@H](CO)NC(=O)[C@@H](NC(=O)[C@H](CC(=O)O)NC(=O)[C@H](CO)NC(=O)[C@@H](NC(=O)[C@H](Cc1ccccc1)NC(=O)[C@@H](NC(=O)CNC(=O)[C@H](CCC(=O)O)NC(=O)CNC(=O)[C@H](Cc1c[nH]cn1)NC(=O)[C@H](C)N)[C@@H](C)O)[C@@H](C)O)C(C)C)C(=O)N[C@@H](C)C(=O)N[C@@H](Cc1c[nH]c2ccccc12)C(=O)N[C@@H](CC(C)C)C(=O)N[C@H](C(=O)N[C@@H](CCCCN)C(=O)NCC(=O)O)C(C)C [3166749#1, AHGEGTFTSDVSSYLEGQAAKEFIAWLVKG]
Human GLP-IR [2]
  EC50: 0.0669 nM
